How the values were obtained:
Type in all cases: physicochemical
[1] = Solubility test in propylene glycol monomethyl ether acetate; settings: 23° C., ultrasonic waves 30 minutes, amount of complete dissolution
Method: The solubility was evaluated by precisely weighing the compound into a test tube, adding propylene glycol monomethyl ether acetate at 23° C. so as to attain a predetermined concentration, applying ultrasonic waves for 30 minutes in an ultrasonic cleaner, then visually observing the subsequent state of the fluid, determining the concentration of the amount of complete dissolution, and conducting evaluation according to the following criteria.
A: 5.0% by mass Amount of dissolution
B: 3.0% by mass Amount of dissolution <5.0% by mass
C: Amount of dissolution <3.0% by mass

[2] = Transparency (absorption constant) of optical member forming film; settings: wavelength 633 nm, film thickness 1000 nm, baked at 110° C. for 60 seconds
Method: (§1) The compound was dissolved at 5% by mass in propylene glycol methyl ether to prepare an optical member forming material. Next, a silicon substrate was spin coated with the optical member forming material, and then baked at 110° C. for 60 seconds to form an optical member forming film with a film thickness of 1000 nm.
(§2) Subsequently, the refractive index and transparency tests at a wavelength of 633 nm were conducted using a vacuum ultraviolet variable angle spectroscopic ellipsometer (VUV-VASE) manufactured by J. A. Woollam Co., Inc. The refractive index and the transparency were evaluated according to the following criteria.
A: The absorption constant was less than 0.03.
B: The absorption constant was 0.03 or more and less than 0.05.
C: The absorption constant was 0.05 or more.

[3] = Film heat resistance; set-up: key: A: No defect in the film was visually observed.; C: Defects in the film were visually observed (including disappearance of the film); settings: film baked at 110° C. for 5 minutes, visual observation
Method: as §1
The optical member forming film obtained as described above was baked at 110° C. for 5 minutes, and evaluation of film heat resistance was carried out according to the following criteria.
A: No defect in the film was visually observed.
C: Defects in the film were visually observed (including disappearance of the film).

[4] = Refractive index of optical member forming film (spectroscopic ellipsometer); settings: wavelength 633 nm, film thickness 1000 nm, baked at 110° C. for 60 seconds
Method: as §1, §2
A: The refractive index was 1.65 or more.
C: The refractive index was less than 1.65.

Structure (SMILES)	Solubility [1]	Film heat resistance [3]	Absorption constant [2]	Refractive index [4]
Oc1ccc(C(c2ccc(-c3ccccc3)cc2)c2ccc(O)c(-c3ccccc3)c2)cc1-c1ccccc1 [BiP-1]	A (5.0% by mass Amount of dissolution)	A	A (The absorption constant was less than 0.03.)	A (The refractive index was 1.65 or more.)
Oc1ccc(-c2ccc(O)c(C(c3ccc(-c4ccccc4)cc3)c3cc(-c4ccc(O)cc4)ccc3O)c2)cc1 [BiP-2]	A (5.0% by mass Amount of dissolution)	A	A (The absorption constant was less than 0.03.)	A (The refractive index was 1.65 or more.)
Oc1ccc2ccc3c(c2c1)C(c1ccc(-c2ccc(C4c5c(ccc6ccc(O)cc56)Oc5ccc6ccc(O)cc6c54)cc2)cc1)c1c(ccc2ccc(O)cc12)O3 [XBiN 3]	A (5.0% by mass Amount of dissolution)	A	A (The absorption constant was less than 0.03.)	A (The refractive index was 1.65 or more.)
CC(C)Cc1ccc(C2c3c(ccc4cc(O)ccc34)Oc3ccc4cc(O)ccc4c32)cc1 [XBisN 2]	A (5.0% by mass Amount of dissolution)	A	A (The absorption constant was less than 0.03.)	A (The refractive index was 1.65 or more.)
CCCc1ccc(C2c3c(ccc4cc(O)ccc34)Oc3ccc4cc(O)ccc4c32)cc1 [XBisN-3]	A (5.0% by mass Amount of dissolution)	A	A (The absorption constant was less than 0.03.)	A (The refractive index was 1.65 or more.)
Oc1ccc(C2c3c(ccc4cc(O)ccc34)Oc3ccc4cc(O)ccc4c32)cc1 [XBisN-4]	A (5.0% by mass Amount of dissolution)	A	A (The absorption constant was less than 0.03.)	A (The refractive index was 1.65 or more.)
CC(C)Cc1ccc(C2c3c(ccc4ccc(O)cc34)Oc3ccc4ccc(O)cc4c32)cc1 [XBisN-6]	A (5.0% by mass Amount of dissolution)	A	A (The absorption constant was less than 0.03.)	A (The refractive index was 1.65 or more.)
CCCc1ccc(C2c3c(ccc4ccc(O)cc34)Oc3ccc4ccc(O)cc4c32)cc1 [XBisN-7]	A (5.0% by mass Amount of dissolution)	A	A (The absorption constant was less than 0.03.)	A (The refractive index was 1.65 or more.)
Oc1ccc2c3c(ccc2c1)Oc1ccc2cc(O)ccc2c1C3c1ccc(-c2ccccc2)cc1 [XiN-1]	A (5.0% by mass Amount of dissolution)	A	A (The absorption constant was less than 0.03.)	A (The refractive index was 1.65 or more.)
Oc1ccc2c3c(ccc2c1)Oc1ccc2cc(O)ccc2c1C3c1ccc(-c2ccc(C3c4c(ccc5cc(O)ccc45)Oc4ccc5cc(O)ccc5c43)cc2)cc1 [XiN-3]	A (5.0% by mass Amount of dissolution)	A	A (The absorption constant was less than 0.03.)	A (The refractive index was 1.65 or more.)

Second part, led by results:

Solubility [1]	Film heat resistance [3]	Structure (SMILES)	Absorption constant [2]	Refractive index [4]
A (5.0% by mass Amount of dissolution)	A	Oc1ccc(C(c2ccc(-c3ccccc3)cc2)c2ccc(O)cc2O)c(O)c1 [Example P-5]	A (The absorption constant was less than 0.03.)	A (The refractive index was 1.65 or more.)
A (5.0% by mass Amount of dissolution)	A	Oc1ccc(C(c2ccccc2)c2ccc(O)cc2O)c(O)c1 [Example P-6]	A (The absorption constant was less than 0.03.)	A (The refractive index was 1.65 or more.)
A (5.0% by mass Amount of dissolution)	A	Oc1ccc(C(c2ccc(C3CCCCC3)cc2)c2ccc(O)cc2O)c(O)c1 [Example P-7]	A (The absorption constant was less than 0.03.)	A (The refractive index was 1.65 or more.)
A (5.0% by mass Amount of dissolution)	A	Oc1ccc2c3c(ccc2c1)Oc1ccc2cc(O)ccc2c1C3c1ccc(C2CCCCC2)cc1 [XBisN-5]	A (The absorption constant was less than 0.03.)	A (The refractive index was 1.65 or more.)
A (5.0% by mass Amount of dissolution)	A	Oc1ccc(C2c3c(ccc4ccc(O)cc34)Oc3ccc4ccc(O)cc4c32)cc1 [XBisN-8]	A (The absorption constant was less than 0.03.)	A (The refractive index was 1.65 or more.)
A (5.0% by mass Amount of dissolution)	A	Oc1ccc2ccc3c(c2c1)C(c1ccc(C2CCCCC2)cc1)c1c(ccc2ccc(O)cc12)O3 [XBisN-9]	A (The absorption constant was less than 0.03.)	A (The refractive index was 1.65 or more.)

Source: patent US20190359756A1, “OPTICAL MEMBER FORMING COMPOSITION” (Mitsubishi Gas Chemical Company, Inc., priority 2016, published 2019)
